Experimental data taken from US20210260033A1, “COMBINED THERAPY WITH ICOS BINDING PROTEINS AND […] INHIBITORS” (GLAXOSMITHKLINE INTELLECTUAL PROPERTY DEVELOPMENT LIMITED, priority 2018, published 2021).
Like-named read-outs stand apart in the source and are kept apart here.

Columns and labels:
Toledo DLBCL cells = assay: western analysis of arginine methylation, timecourse; format: cell-based, human; settings: 0.4 uM
Method: (B) Representative western blots of arginine methylation marks. Regions quantified are denoted by black bars on the right of the gel.
As predicted, ADMA methylation decreased while MMA increased upon compound exposure (FIG. 12). […] Given the detection of numerous substrates with varying kinetics, and variability of ADMA levels among DMSO-treated samples, both the full lane and a prominent 45 kDa band were characterized to assess ADMA. Increases in MMA were apparent by 24 hours and near maximal by 48 hours while decreases in the 45 kDa ADMA band required 72-96 hours to achieve maximal effect. Increases in SDMA were apparent after 48 hours of compound exposure and continued to increase through 120 hours, consistent with the potential switch from conversion of MMA to ADMA by Type I PRMTs to SDMA by Type II PRMTs (FIG. 12).

lymphoma cell lines [1] = assay: 6-day growth-death assay (Cell Titer Glo); format: cell-based, human; settings: Hodgkin's and non-Hodgkin's subtypes
Method: (§4) The growth of all cell lines was evaluated over time across a wide range of seeding densities to identify conditions that permitted proliferation throughout the entire 6-day assay. Cells were plated at the optimal seeding density and after overnight incubation, a 20-point 2-fold titration of compound was added and plates were incubated for 6 days. A replicate plate of cells was harvested at the time of compound addition to quantify the starting number of cells (T0). Values obtained after the 6 day treatment were expressed as a function of the T0 value and plotted against compound concentration. The T0 value was normalized to 100% and represents the number of cells at the time of compound addition. The data were fit with a 4 parameter equation to generate a concentration response curve and the growth IC50 (gIC50) was determined. The gIC50 is the midpoint of the ‘growth window’, the difference between the number of cells at the time of compound addition (T0) and the number of cells after 6 days (DMSO control). The growth-death assay can be used to quantify the net population change, clearly defining cell death (cytotoxicity) as fewer cells compared to the number at the time of compound addition (T0).

[2] = system: panel of lymphoma cell lines; assay: western dose response of arginine methylation; format: cell-based, human; settings: all lymphoma cell lines evaluated; 72 hours
Description: Regions quantified for (B) are denoted by black bars to the left of gels. […] Corresponding gIC50 values in 6-day growth death assay are as indicated in red.

AML cell lines [3] = assay: 6 and 10 day proliferation assays; format: cell-based, human; settings: day 10 vs day 6
Description: (§1) (B) Ymin-T0 at 6 day (light blue) and 10 day (dark blue) with corresponding gIC100 (red points).

lymphoma cell lines [4] = assay: 6 and 10 day proliferation assays; format: cell-based, human; settings: day 10 vs day 6
Description: as §1

[5] = dog, at 21-day MTD […] mg/kg
OCI-Ly1 = system: OCI-Ly1
Method: (§2) FIG. 18: Propidium iodide FACS analysis of cell cycle in human lymphoma cell lines. […] Data represents the average±SEM of biological replicates, n=2.
(§3) By day 7, an increase in the sub-G1 population was apparent at concentrations ≥100 nM.

U2932 = system: U2932
Method: as §2, §3

kidney cancer cell lines = assay: 6-day growth-death assay (Cell Titer Glo); format: cell-based, human; settings: renal cell carcinoma lines tested
Method: as §4

[6] = rat, at 14-day MTD […] mg/kg
AML cell lines [7] = assay: 6-day growth-death assay (Cell Titer Glo); format: cell-based, human; settings: 10 cell lines
Method: as §4

AML cell lines [8] = assay: Methylscan proteomic evaluation of arginine methylation; format: cell-based; settings: AML cell lines treated with the tool compound vs DMSO
Description: FIG. 3: Methylscan evaluation of cell lines treated with Compound D. Percent of proteins with methylation changes (independent of directionality of change) are categorized by functional group as indicated.
To identify putative PRMT1 substrates, a proteomic approach (Methylscan, Cell Signaling Technology) was utilized to identify proteins with changes in arginine methylation states in response to a tool PRMT1 inhibitor, Compound D. Protein fragments from Compound D- and DSMO-treated cell extracts were immunoprecipitated using methyl arginine specific antibodies (ADMA, MMA, SDMA), and peptides were identified by mass spectrometry.

CCOCC1(COCC)CCC(c2n[nH]cc2CN(C)CCNC)CC1 [Compound A]
time to maximal decrease of the 45 kDa ADMA band (Toledo DLBCL cells): 72 to 96 h
change of ADMA methylation (Toledo DLBCL cells; up to 120 hours): decreased
change of MMA (Toledo DLBCL cells; up to 120 hours): increased
change of SDMA (Toledo DLBCL cells; up to 120 hours): increase
sensitivity by lymphoma subtype (lymphoma cell lines [1]): equally sensitive
45 kDa ADMA band [2]: decreased to undetectable levels
effect of extended exposure on potency (gIC50) or cytotoxicity (Ymin-T0) (AML cell lines [3]): minimal effects
effect of extended exposure on potency (gIC50) or cytotoxicity (Ymin-T0) (lymphoma cell lines [4]): minimal effects
Cave (total AUC or exposure) [5]: 3200 nM
concentration at which sub-G1 effect was evident (OCI-Ly1): 10 µM
concentration at which sub-G1 effect was evident (U2932): 10 µM
cytotoxic response (kidney cancer cell lines): none of the lines tested showed a cytotoxic response
Cave (total AUC or exposure) [6]: 2100 nM
number of cell lines in which cytotoxicity was induced (AML cell lines [7]): 5 cell lines

CNCCN(C)Cc1c[nH]nc1[C@H]1CC[C@@]2(CC1)CC(C)(C)CO2 [Compound D]
proteins with changes in arginine methylation states (ADMA, MMA, SDMA) (AML cell lines [8]): the majority of substrates identified were transcriptional regulators and RNA processing proteins
